From publication PMC12303054, “First-in-class inhibitors of Nsp15 endoribonuclease of SARS-CoV-2: Modeling, synthesis, and enzymatic assay of thiazolidinedione and rhodanine analogs” (The Journal of Biological Chemistry, 2025)
Where “and” joins values, the source holds several entries; their conditions need not be identical. Identical values can stand only once. Entries after “also recorded” stand apart in the source; their conditions may differ. Like-named read-outs stand apart in the source and are kept apart here.

Columns and labels:
Nsp15 = details: cited from earlier work
[1] = target: T1, wildtype SARS-CoV-2 Nsp15 (Severe acute respiratory syndrome coronavirus 2, UniProt P0DTD1); experiment: biochemical; details: for IC50: 150 nM enzyme, 1.2 μM substrate, 30 min, 25 °C, mean (SD), duplicates; for change of inhibitory effect relative to parent analog: comparison of IC50 values; for IC50 versus time: IC50 calculated every 5 min for 30 min; for inhibition model: extra sum-of-squares F test; for Vmax: fit parameter of mixed inhibition model for the named inhibitor
[2] = target: T1, wildtype SARS-CoV-2 Nsp15; experiment: Nsp15 inhibition in HEPES buffer assay conditions; format: biochemical; details: 10 nM Nsp15, 500 nM substrate, 100 μM compound
SARS-CoV-2 = SARS-CoV-2 plaque assay in VeroE6/TMPRSS2 cells; format: cell-based; details: for IC50: 24 h infection, MOI = 0.1, read-out: IC50 (viral inhibition, plaque assay)
in vitro = format: cell-based; details: African green monkey, uninfected cells, intracellular ATP
Description: (§1) Initially, we grew VeroE6/TMPRSS2 cells overnight in 96-well plates at 10,000 cells per well. The next day, we added increasing concentrations of the tested compound (500, 200, 100, 50, 20, 10, 5, 2, and 1 μM) and DMSO as a control. We let the cells incubate with inhibitors for 24 h. After 24 h, we measured the viability of these cells using the CellTiter-Glo Luminescent Cell Viability Assay (Promega), according to the manufacturer’s instructions. We incubated cells in 100 μl of media with 100 μl of CellTiter-Glo reagent, which contains Ultra-Glo luciferase and the substrate luciferin. The luciferase converts luciferin to luminescent oxyluciferin in the presence of ATP. Viable cells produce more ATP and generate a stronger luminescent signal. We mixed samples by shaking for 10 min and measured luminescence by a VICTOR Nivo Plate Reader (Avantor Science Central).

SARS-CoV-2 RNA = format: cell-based; details: 24 h infection, MOI = 0.1
SARS-CoV-2 Nsp15 = SARS-CoV-2 Nsp15 (Severe acute respiratory syndrome coronavirus 2, UniProt P0DTD1); experiment: Reversibility by the dilution method; format: biochemical; details: preincubated 60 min, diluted 1:100
VeroE6/TMPRSS2 cells = experiment: in vitro; format: cell-based; details: uninfected cells, 24 h, intracellular ATP
Description: as §1

[3] = noncompetitive inhibition model, IC50-to-Ki converter, read-out: Predicted Ki
[4] = mixed inhibition model fit, mean ± SD
[5] = mixed inhibition model fit, mean ± SD, read-out: Ki
[6] = Severe acute respiratory syndrome coronavirus 2, VeroE6/TMPRSS2, 24 h

In the case of Oc1ccc2ccccc2c1SSc1c(O)ccc2ccccc12 [IPA-3], the IC50 (Nsp15) is listed as 7 µM and the “inhibition mechanism” value (Nsp15) is listed as “irreversibly inhibited Nsp15”.

For O=C1NC(=O)C(=CC=Cc2c3ccccc3cc3ccccc23)S1 [KCO035, 5-(3-anthracen-9-yl-allylidene)-thiazolidine-2,4-dione], the “inhibitory effect on Nsp15 activity” value [1] was “mild inhibitory effect”, the IC50 [1] was 7.21 µM and the inhibition at 100 µM ([1]; 100 μM compound) was ~80%. For the same compound, the Ki [1, 3] was 7.14 µM.

In the case of O=C1NC(=O)C(=CC=Cc2ccccc2)S1 [KCO036, 5-(3-Phenyl-allylidene)-thiazolidine-2,4-dione], the “inhibitory effect on Nsp15 activity” value [1] is reported as “weak inhibitor”, the IC50 [1] is reported as 9.4 µM and the “change of inhibitory effect relative to parent analog” value [1] is reported as “reduced inhibitory effect”. The Ki [1, 3] was 9.33 µM.

With O=C1NC(=O)C(=CC=Cc2ccnc3ccccc23)S1 [KCO048] the “inhibitory effect on Nsp15 activity” value [1] was “low micromolar concentrations”, the IC50 [1] was 1.35 µM and the “change of inhibitory effect relative to parent analog” value [1] was “threefold greater inhibitory effect than KCO231”. The Ki [1, 3] was 1.27 µM.

With O=C1NC(=S)SC1=CC=Cc1c2ccccc2cc2ccccc12 [KCO230, 5-(3-anthracen-9-yl-allylidene)-2-thioxo-thiazolidin-4-one] the IC50 [1] was 4.58 µM, the “change of inhibitory effect relative to parent analog” value [1] was “nearly doubled” and the Ki [1, 3] was 4.5 µM.

With O=C1NC(=O)C(=CC=Cc2cccc3ccccc23)S1 [KCO231, 5-(3-naphthalen-1-yl-allylidene)-thiazolidine-2,4-dione] the IC50 [1] was 4.41 µM, the “change of inhibitory effect relative to parent analog” value [1] was “doubled the inhibitory effect” and the Ki [1, 3] was 4.34 µM.

With O=C1NC(=O)C(=CC=Cc2cncc3ccccc23)S1 [KCO234, 5-(3-isoquinolin-4-yl-allylidene)-thiazolidine-2,4-dione] the IC50 [1] was 7.38 µM, the “change of inhibitory effect relative to parent analog” value [1] was “did not enhance inhibitory activity” and the Ki [1, 3] was 7.3 µM.

In the case of O=C1NC(=O)C(=CC=Cc2cccc3ccncc23)S1 [KCO235, 5-(3-isoquinolin-8-yl-allylidene)-thiazolidine-2,4-dione], the IC50 [1] is reported as 4.17 µM, the “change of inhibitory effect relative to parent analog” value [1] is reported as “moderate increase in inhibitory effect” and the Ki [1, 3] is reported as 4.1 µM.

With O=C1NC(=O)C(=CC=Cc2ccc3cnccc3c2)S1 [KCO236, 5-(3-isoquinolin-6-yl-allylidene)-thiazolidine-2,4-dione] the “inhibitory effect on Nsp15 activity” value [1] was “submicromolar levels”, the IC50 [1] was 0.932 µM and the “change of inhibitory effect relative to parent analog” value [1] was “moderate increase in inhibitory effect”. The Ki [1, 3] was 0.857 µM.

For O=C1NC(=S)SC1=CC=Cc1ccnc2ccccc12 [KCO237, 5-(3-quinolin-4-yl-allylidene)-2-thioxo-thiazolidine-4-one], the “inhibitory effect on Nsp15 activity” value [1] was “submicromolar levels”, the IC50 [1] was 0.304 µM and the Ki ([1]; Cheng–Prusoff equation, noncompetitive inhibition assumed, read-out: predicted Ki) was 0.23 µM. The “IC50 versus time” value [1] was “consistent through the period of the assay; also recorded: remained constant over the time of the assay”, the “change of inhibitory effect relative to parent analog” value [1] was “fivefold increase in potency compared with KCO048” and the “inhibition model” value [1] was “reversible mixed inhibition model”. It also gave a Vmax [1] of 1.57 ± 0.0568 µM/min, a α [1, 4] of 0.343 ± 0.188 and a Ki [1, 5] of 0.318 ± 0.134 µM. For the same compound, the Ki [1, 3] was 0.229 µM, the “inhibition under HEPES assay conditions” value [2] was “inhibited Nsp15 more potently than tipiracil under these conditions” and the IC50 (SARS-CoV-2) was 13.9 ± 1.95 µM. The IC50 (SARS-CoV-2; [6]) was 14 µM, the CC50 at 24 h (in vitro) was > 500 µM and the “intracellular SARS-CoV-2 RNA” value (SARS-CoV-2 RNA) was “significantly reduced viral RNA in a dose-dependent manner”. The “Nsp15 activity after inhibitor dilution” value (SARS-CoV-2 Nsp15) was “recovered its activity”.

With CN1C(=O)SC(=CC=Cc2c3ccccc3cc3ccccc23)C1=O [KCO238, 3-methyl-5-(3-anthracen-9-yl-allylidene)-thiazolidine-2,4-dione] the “inhibitory effect on Nsp15 activity” value [1] was “did not inhibit Nsp15 activity; also recorded: lose their inhibitory effect” and the IC50 [1] was 106 µM.

For O=C1NC(=S)SC1=CC=Cc1cccc2ccccc12 [KCO249, 5-(3-naphthalen-1-yl-allylidene)-2-thioxo-thiazolidin-4-one], the “inhibitory effect on Nsp15 activity” value [1] was “low micromolar concentrations”, the “change of inhibitory effect relative to parent analog” value [1] was “enhanced its inhibitory effect by sixfold” and the Ki [1, 3] was 1.28 µM.

For CN1C(=O)SC(=CC=Cc2cccc3ccccc23)C1=O [KCO250, 3-methyl-5-(3-naphthalen-1-yl-allylidene)-thiazolidine-2,4-dione], the “inhibitory effect on Nsp15 activity” value [1] was “did not inhibit Nsp15 activity; also recorded: lose their inhibitory effect” and the IC50 [1] was > 1000 µM.

With O=C1NC(=S)SC1=CC=Cc1cncc2ccccc12 [KCO251, 5-(3-isoquinolin-4-yl-allylidene)-2-thioxo-thiazolidin-4-one] the “inhibitory effect on Nsp15 activity” value [1] was “submicromolar levels”, the IC50 [1] was 0.931 µM and the “IC50 versus time” value [1] was “consistent through the period of the assay; also recorded: remained constant over the time of the assay”. The “change of inhibitory effect relative to parent analog” value [1] was “eightfold increase in inhibition potency”, the “inhibition model” value [1] was “reversible mixed inhibition model” and the Vmax [1] was 3.38 ± 0.170 µM/min. The α [1, 4] was 0.293 ± 0.280, the Ki [1, 5] was 0.471 ± 0.33 µM and the Ki [1, 3] was 0.856 µM. The “inhibition under HEPES assay conditions” value [2] was “inhibited Nsp15 more potently than tipiracil under these conditions”, the “selectivity index (SI)” value (SARS-CoV-2; CC50 over IC50) was ~13 and > 10 and the IC50 (SARS-CoV-2; [6]) was 24 µM. The CC50 at 24 h (in vitro) was > 300 µM, the CC50 (VeroE6/TMPRSS2 cells) was 311 ± 120 µM and the “intracellular SARS-CoV-2 RNA” value (SARS-CoV-2 RNA) was “significantly reduced viral RNA in a dose-dependent manner”. For the same compound, the “Nsp15 activity after inhibitor dilution” value (SARS-CoV-2 Nsp15) was “recovered its activity”.

For O=C1C(SCCO)=C(SCCO)C(=O)c2ccccc21 [NSC95397], the IC50 (Nsp15) is given as 43 µM.

For N=C1CCCN1Cc1nc(O)nc(O)c1Cl [Tipiracil, tipiracil, reference compound], the “inhibitory effect on Nsp15 activity” value [1] was “did not inhibit Nsp15 activity”, the IC50 [1] was > 1000 µM and the “inhibition under HEPES assay conditions” value [2] was “did inhibit Nsp15 under these conditions but to a lesser extent than KCO237 and KCO251”. The IC50 (Nsp15) was 7.5 µM.

For Oc1c(Cl)cc(Cl)c(Cl)c1Cc1c(O)c(Cl)cc(Cl)c1Cl [hexachlorophene], the IC50 (Nsp15) is listed as 1 µM.
